Patent US12084481B2 (priority 2016, dated 2024)

Target: hHv1 (Homo sapiens, UniProt Q96D96)
Format: cell-based
Settings: not given

hHv1, sequence (Q96D96 whole entry): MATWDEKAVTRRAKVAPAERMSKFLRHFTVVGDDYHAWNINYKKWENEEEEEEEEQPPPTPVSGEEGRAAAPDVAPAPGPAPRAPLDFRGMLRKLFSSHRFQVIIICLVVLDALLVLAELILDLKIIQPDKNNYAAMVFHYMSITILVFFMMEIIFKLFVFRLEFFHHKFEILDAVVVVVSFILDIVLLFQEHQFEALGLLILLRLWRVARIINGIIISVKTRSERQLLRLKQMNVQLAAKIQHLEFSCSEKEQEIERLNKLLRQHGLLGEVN

Molecule	Activator/Inhibitor
GCKGFGDSCADSDDCCETFHCKWVFFTSKFMCRRVWGKD [A6]	ACTIVATOR
GCLGDKCADSDDCCETFHCKWVFFTSKFMCRRVWGKD [B1]	ACTIVATOR

Tested on: human blood cells
Format: cell-based
Settings: 100 μM

Molecule	production of ROS
[Zn] [zinc]	blocks ROS production to background (control) levels

Target: Hv1 channels (Homo sapiens, UniProt Q96D96)
Settings: cited from earlier work

Hv1 channels, sequence (Q96D96 whole entry): as the sequence (Q96D96 whole entry) above

Molecule	concentrations inhibiting Hv1	effect on Hv1 proton currents
ECRYLFGGCKTTSDCCKHLGCKFRDKYCAWDFTFS [hanatoxin]	low micromolar	
CCCCC/C=C\C/C=C\C/C=C\C/C=C\CCCC(=O)O [arachidonic acid]		enhance Hv1 proton currents
CCCCCCCC/C=C\CCCCCCCC(=O)O [oleic acid]		enhance Hv1 proton currents

Tested on: H^+ currents
Settings: cited from earlier work

Molecule	effect on H^+ currents
CN(C)CCC=C1c2ccccc2CCc2ccccc21 [amitryptiline]	block H^+ currents
COc1ccc(CCN(C)CCCC(C#N)(c2ccc(OC)c(OC)c2)C(C)C)cc1OC (stereo not shown) [verapamil]	block H^+ currents
N=C(N)NC(=O)c1nc(Cl)c(N)nc1N [amiloride]	block H^+ currents
CNCCCN1c2ccccc2CCc2ccccc21 [desipramine]	block H^+ currents
COc1ccc2c(c1)[C@]13CCCC[C@@H]1[C@H](C2)N(C)CC3 [dextromethorphan]	block H^+ currents
COc1ccc(CCN(C)CCCC(C#N)(c2cc(OC)c(OC)c(OC)c2)C(C)C)cc1OC (stereo not shown) [D600]	block H^+ currents
CNCCC(Oc1ccc(C(F)(F)F)cc1)c1ccccc1 (stereo not shown) [fluoxetine]	block H^+ currents
O=C(O[C@@H]1Cc2c(O)cc(O)cc2O[C@@H]1c1cc(O)c(O)c(O)c1)c1cc(O)c(O)c(O)c1 [EGCG]	block H^+ currents
Nc1ccncc1 [4-aminopyridine]	block H^+ currents
CN(C)CCCN1c2ccccc2CCc2ccccc21 [imipramine]	block H^+ currents
